According to patent publication US20230392124A1, “METHODS AND COMPOSITIONS FOR IMPROVING SC-BETA CELLS OR ENHANCING THEIR UTILITY” (Washington University, priority 2020, published 2023):

What was measured:
Type in all cases: cell-based, human
[1] = system: SC beta cell differentiation; assay: Other modifications to the differentiation protocol, differentiation markers; conditions: for PDX1/NKX61 co expression: treatment during S4
Description: (§1) Other Modifications with Benefits (See e.g., FIG. 90-FIG. 95). • Y and Blebbistatin treatment during stage 4 of differentiation • Reducing volume of media • Wnt modification—IWP2 treatment during s1d2-d4 • bFGF treatment during stage 1 • Betacellulin removal during S5 • Other compound treatments during Stage 6

[2] = system: stem cells in SC-β cell protocol; assay: Cytoskeletal modulating compounds added for first 24 hours of stages of the SC-β cell protocol, gene expression; conditions: added during stage 1, read at S2d1
Experimental: Small molecules that influence the state of the cytoskeleton were added for first 24 hours of various stages of the SC-β cell protocol.

SC-beta cells = assay: Compound treatments during Stage 6 (s6d1-7), insulin secretion; conditions: treatment during s6d1-7
Description: as §1

SC-β cells = assay: Refining stage 6 ESFM: components on top of base media, GSIS stimulation index; conditions: in ESFM, 20 mM; by increasing insulin secretion at low glucose
Experimental: Base Media • MCDB131 • 10% BSA • Glutamax • P/S • Glucose • Zn 10 μM
Treatment on Top of Base Media • 1-Trace A 1:1000 • 2-Trace B 1:1000 • 3-Trace C 1:1000 • 4-Heparin 10 μg/mL • 5-NEAA 1:100 • 6-Vitamin C 250 μM • 7-NaHCO320 mM • 8-Defined Lipid Mixture 1:1000 • 9-Defined Lipid Mixture 1:1000 • 10-Base • 11-S6 w/water dilution 1:100 • 12-S6 no water dilution
All samples had same total dilution of 1:100 with water to maintain same osmolarity amongst samples.

INS-mCherry+ cells = assay: mCherry/INS reporter cell line, β cell health
Description: Stage 6 INS+/−mcherry SC-islets can be single cell dispersed, sorted for INS+ SC-β cells, and treated with a SERCA pump inhibitor (thapsigargin) to reduce insulin secretion for high throughput drug screening.

WS4^unedit stage 6 cells = assay: ER stress study: thapsigargin treatment, static GSIS, real-time PCR and western blot
Experimental: (§2) For static GSIS, approximately 30 stage 6 clusters were placed in transwells (Corning), equilibrated for 1 hr in 2 mM glucose KRB (TABLE 6), and challenged with sequential 1-hr 2 and 20 mM KRB treatments. For dynamic GSIS, clusters were loaded into a cell chamber, perfused with buffer at 100 μL/min, and equilibrated in 2 mM glucose KRB for 90 min. The samples were then challenged for 12 min at 2 mM, 24 min at 20 mM, and 12 min at 2 mM glucose KRB, collecting effluent every 2-4 min. Human insulin was quantified with ELISA and data normalized to cell counts from Vi-Cell XR or DNA quantification using Quant-iT Picogreen dsDNA assay kit (Invitrogen).
(§3) Detection of phosphorylated and total eIF2α as performed by lysing cells in 1% Triton buffer (20 mM HEPES, pH 7.5, 150 mM NaCl, 1% Triton X-100, 10% glycerol (Sigma), 1 mM EDTA, 10 mM tetrasodium pyrophosphate (Sigma), 17.5 mM β-glycerophosphate (Sigma), PhosSTOP (Roche), and complete protease inhibitor cocktail (Roche). Detection of all other proteins was done by lysing cells in M-PER Mammalian Protein Extraction Reagent (Thermo Scientific) supplemented with cOmplete protease inhibitor cocktail. After 30 min incubation on ice, samples were centrifuged, supernatants collected, and protein-equivalent samples were loaded onto 4-20% Mini-PROTEAN TGX Precast Protein Gels (Bio-Rad) and transferred to an Immobilon-P PVDF Membrane (Millipore). The membrane was treated with 5% skimmed milk for 1 hr at RT and probed with the primary antibodies. The antibodies were detected using HRP-linked secondary antibodies. The density of each band was quantified using Image Lab software (Bio-Rad).
(§4) RNA was extracted with the RNeasy Mini Kit (Qiagen) with DNase treatment (Qiagen), cDNA was synthesized with the High Capacity cDNA Reverse Transcriptase Kit (Applied Biosystems using a thermocycler (Applied Biosystems), real-time PCR reactions were generated with PowerUp SYBR Green Master Mix (Applied Biosystems) using a StepOnePlus (Applied Biosystems), and data analyzed using ΔΔCt methodology. TBP and GUSB were used as normalization genes. Primer sequences used can be found in TABLE 8.
(§5) Cells were incubated for 48 hr with 10 μM Thapsigargin (EMD Chemicals), 30 mM glucose, or a cytokine mix including 500 ng/mL IFNγ (R&D Systems), 500 ng/mL TNFα (R&D Systems), and 100 ng/mL […] (R&D Systems).

WS4^corr stage 6 cells = assay: as above
Experimental: as §2, §3, §4, §5

Stage 6 SC-Beta cells = assay: Compounds to improve SC-beta cells: 7 day culture, qPCR of 10 genes; conditions: 1 μg/mL, 6 days, qPCR vs Control 1
Experimental: Cultured 14 wells of 6-well plates containing Stage 6 SC-Beta cells differentiated in suspension by Punn. Two wells served as controls.
Each well was cultured in one of the following for 7 days*: • […] IFN Gamma • […] TNF Alpha • […] IL-1 Beta • Mixture of the above cytokines • 10% FBS • 10, 1, and 0.1 μM A83-01 • 10, 1, and 0.1 μM Alk5i Ill • 1 μg/mL Lefty A (*cultured for 6 days)
Ran qPCR and compared everything to Control 1 (had smallest Ct SD).

[3] = 10 μM Thapsigargin, 48 hr, static GSIS, WS4^corr stage 6 cells

Cc1ccc2c(c1)C(=O)C1(O)CCN(c3ccccc3)C1=N2 (stereo not drawn) [Blebbistatin]
PDX1/NKX61 co expression [1]: Improves

CCCCCCCCCCCCC/C=C/[C@@H](O)[C@@H](N)COP(=O)(O)O [s1p]
expression of the mesoderm marker Brachyury T [2]: greatly increases

bFGF: growth factor added during stage 1
differentiation ([1]; treatment during Stage 1): improves differentiation

C[C@@H](N)[C@H]1CC[C@H](C(=O)Nc2ccncc2)CC1 [Y]
PDX1/NKX61 co expression [1]: Improves

C=C1[C@@H](C)[C@H]2[C@H](Cc3ccccc3)NC(=O)[C@]23[C@H](OC(C)=O)/C=C/[C@@](C)(O)C(=O)[C@@H](C)C/C=C/[C@H]3[C@@H]1O [CytoD]
insulin secretion (SC-beta cells): increases

O=C([O-])O.[Na+] [NAHCO3]
stimulation index (GSIS) (SC-β cells): reduces stimulation index

OC[C@H]1OC(O)[C@H](O)[C@@H](O)[C@@H]1O (stereo partly drawn) [High Glucoses]
insulin secretion (SC-beta cells): increases

Cc1ccc2nc(NC(=O)CSc3nc4c(c(=O)n3-c3ccccc3)SCC4)sc2c1 [IWP2]
PDX1 yield at S3 ([1]; during Sd2-d4): promotes

C/C=C(/C)C(=O)O[C@H]1C(C)=C2[C@H]([C@@H]1OC(=O)CCCCCCC)[C@@](C)(OC(C)=O)C[C@H](OC(=O)CCC)[C@@]1(O)[C@H]2OC(=O)[C@@]1(C)O [thapsigargin]
De-differentiation signatures (INS-mCherry+ cells): De-differentiation signatures occur | mCherry fluorescence (insulin expression) (INS-mCherry+ cells): reduces mCherry fluorescence | insulin secretion (WS4^unedit stage 6 cells; 10 μM Thapsigargin, 48 hr, static GSIS, WS4^unedit stage 6 cells): not affected | known stress markers (WS4^unedit stage 6 cells; real-time PCR and western blot, bulk stage 6 population, WS4^unedit cells): increasing known stress markers | decrease of insulin secretion (WS4^corr stage 6 cells; [3]): 3.9±0.7 × | glucose-responsiveness (WS4^corr stage 6 cells; [3]): eliminating glucose-responsiveness | known stress markers (WS4^corr stage 6 cells; real-time PCR and western blot, bulk stage 6 population, WS4^corr cells): increasing known stress markers

B1: Lefty A: factor added to stage 6 culture at 1 μg/mL (protein, UniProt O00292 77-366, looked up)
Left-right determination …: RFSQSFREVAGRFLASEASTHLLVFGMEQRLPPNSELVQAVLRLFQEPVPKAALHRHGRLSPRSAQARVTVEWLRVRDDGSNRTSLIDSRLVSVHESGWKAFDVTEAVNFWQQLSRPRQPLLLQVSVQREHLGPLASGAHKLVRFASQGAPAGLGEPQLELHTLDLRDYGAQGDCDPEAPMTEGTRCCRQEMYIDLQGMKWAKNWVLEPPGFLAYECVGTCQQPPEALAFNWPFLGPRQCIASETASLPMIVSIKEGGRTRPQVVSLPNMRVQKCSCASDGALVPRRLQP
NKX6-1 expression (Stage 6 SC-Beta cells): slightly decreased | genes with increased expression (IAPP, SIX2, CHGA, SIX3, G6PC2, MAF B) (Stage 6 SC-Beta cells): 6/10

B2: BC: Betacellulin, stage 5 factor (protein, UniProt P35070 32-111, looked up)
Betacellulin: DGNSTRSPETNGLLCGDPEENCAATTTQSKRKGHFSRCPKQYKHYCIKGRCRFVVAEQTPSCVCDEGYIGARCERVDLFY
modifications: Betacellulin
notes: Betacellulin, stage 5 factor
requirement for Beta cell induction ([1]; removal during S5): not required
